The nature of one data set: Plasma stability assay. The class given is in vitro ADME, human. As for the experimental part:
The plasma stability property of early drug discovery compounds can influence the in vivo efficacy of the test compounds/drugs. Human and/or mouse plasma degradation is determined using multiple time points to monitor the rate of disappearance of the parent compound during incubation.
Sample preparation for plasma stability was modified from Di et al. (2005) Int. J. Pharm. 297(1-2): 110-119. A set of incubation times of 0, 3, 24, and 48 hour were used. DMSO stock solutions of test compounds were prepared at 10 mM concentration. 1.8 μL of each test compound was each added directly to 1.8 mL of human/mouse plasma to get the final concentration of 10 μM. This compound/matrix was mixed and 70 μL was transferred to 8 time points plates (each in triplicate wells). For the Time 0 plate, 210 μL of cold acetonitrile with internal standard (4 μg/mL warfarin) was added to each well and no incubation needed. For other seven time points' plate, the plate was incubated at 37° C. for required time, followed by quenching of the reaction by adding 210 μL of cold acetonitrile with internal standard (4 μg/ml warfarin) to each well. All of the plates were sealed and mixed well at 600 rpm for 10 min and were centrifuged at 4000 rpm for 20 min. The supernatants (120 μL) were transferred to analytical plates for analysis by LCMS. Conditions for Waters ACQUITY-UPLC-MS-UV system was described separately. The plasma stability was evaluated via the half-life from least-squares fit of the multiple time points based on first-order kinetics.

Data set [1] can be described thus: Microsomal metabolic stability. It counts as in vitro ADME, mouse. As for the experimental part: Compounds were initially prepared by dissolving them into DMSO at a final concentration of 10 mM. NADPH regenerating solutions A and B and mouse liver microsomes (CD-1) were obtained from BD Gentest (Woburn, Mass.). Ninety-six well deep well plates were obtained from MidWest Scientific Inc (Valley Park, Mo.).
Sample preparation for microsomal stability was modified from methods of Di, L., et al., Int J Pharm. 2005 Jun. 13; 297(1-2):110-9. A set of incubation times of 0, 15, 30, 60, 120, and 240 minutes were used. Mouse liver microsomal solutions were prepared by adding 58 μL of concentrated human or mouse liver microsomes (20 mg/mL protein concentration) to 1.756 mL of 0.1 M potassium phosphate buffer (pH 7.4) and 5 μL of 0.5 M EDTA to make a 0.6381 mg/mL (protein) microsomal solution. NADPH regenerating agent contained 113 μL of NADPH A, 23 μL of NADPH B, and 315 μL of 0.1 M potassium phosphate buffer (pH 7.4). The diluted test compound solutions (2 μL) were each added directly to a 1.79 mL of liver microsomal solution. This solution was mixed and 90 μL was transferred to 6 time points plates (each in triplicate wells). For the time 0 plate, 225 μL of cold acetonitrile with internal standard ([…] warfarin) was added to each well, followed by addition of NADPH regenerating agent (22.5 μL) and no incubation. For other five time points' plate, NADPH regenerating agent (22.5 μL) was added to each well to initiate the reaction. The plates were incubated at 37° C. for the required time, followed by quenching of the reaction by adding 225 μL of cold acetonitrile with internal standard (4 μg/ml warfarin). All of the plates were sealed and mixed well at 600 rpm for 10 minutes followed by centrifugation at 4000 rpm for 20 minutes. The supernatants (120 μL) were transferred to analytical plates for analysis by LCMS. LCMS conditions were described in the materials and instrumentation section above. The metabolic stability is evaluated via the half-life from least-squares fit of the multiple time points based on first-order kinetics.

Setting [2] is: plasma stability half-life, human plasma, 37° C.
Where [3] appears, read: microsomal metabolic stability half-life, mouse liver microsomes.

The source of these data is patent US10570179B2, “Substituted urea depsipeptide analogs as activators of the CLPP endopeptidase” (priority 2016, dated 2020).

Structures are written as SMILES. Numbered stars: 1 amine (or outer) side, 2 acyl side, 3 side chain; on linkers, the order of the positions; unused ones are H or OH. Bridge positions count the residues as written; N and C are the ends. Square brackets hold non-standard residues; d marks the D form. Peptide text beside a SMILES is read from it. * marks the point of attachment. Piperazine(2S-CO,4-Me) = CN1CCN[C@H](C(=O)O)C1; Phe(3-Cl) = N[C@@H](Cc1cccc(Cl)c1)C(=O)O; Morpholine(3S-CO) = O=C(O)[C@@H]1COCCN1; Phe(3-Me) = Cc1cccc(C[C@H](N)C(=O)O)c1; X4 = O=C1CN([*:1])[C@H](C(=O)[*:2])CN1; NH(4-Cl-2-F-phenyl) = Fc1cc(Cl)ccc1N*; Pro(4R-Me) = C[C@H]1CN[C@H](C(=O)O)C1; Propanoyl(3-NMe2) = CN(C)CCC(=O)*; X1 = O=C([C@@H]1CSCCN1[*:1])[*:2]; Hyp = O=C(O)[C@@H]1C[C@@H](O)CN1; NH(4-Et-phenyl) = CCc1ccc(N*)cc1; NH(4-Me-phenyl) = Cc1ccc(N*)cc1; aThr = C[C@H](O)[C@H](N)C(=O)O; Pip = O=C(O)[C@@H]1CCCCN1; 4Abz = Nc1ccc(C(=O)O)cc1; X3 = c1cc2c(cc1N*)OCCO2; CO = O=C([*:1])[*:2] Where only a bound is given, the exact number is not on record here.

In the case of `CCOC(=O)c1ccc(NC(=O)N[C@@H](Cc2cccc(C)c2)C(=O)N[C@@H]2C(=O)N3C[C@H](O)C[C@H]3C(=O)N3CCCC[C@H]3C(=O)N[C@@H](C)C(=O)N3C[C@H](C)C[C@H]3C(=O)O[C@H]2C)cc1` [Compound 36, ETHYL 4-(3-((S)-1-(((2R,6S,8AS,14AS,16R,20S,21S,23AS)-16-HYDROXY-2,6,21-TRIMETHYL-5,8,14,19,23-PENTAOXOOCTADECAHYDRO-1H,5H,14H,19H-PYRIDO[2,1-I]DIPYRROLO[2,1-C:2′,1′-L][1]OXA[4,7,10,13]TETRAAZACYCLOHEXADECIN-20-YL)AMINO)-1-OXO-3-(M-TOLYL)PROPAN-2-YL)UREIDO)BENZOATE] ({OEt-4Abz-CO}-[Phe(3-Me)][aThr][Hyp][Pip]A[Pro(4R-Me)]; ester 2-C), in “Plasma stability assay” (setting [2]), the “Human” value was 57.50 h. In data set [1] (setting [3]), the “Mouse” value came out at 11.23 ± 1.23 h.
On to `Cc1cccc(C[C@H](NC(=O)Nc2ccc(Cl)cc2F)C(=O)N[C@@H]2C(=O)N3C[C@H](O)C[C@H]3C(=O)N3CCSC[C@H]3C(=O)N[C@@H](C)C(=O)N3C[C@H](C)C[C@H]3C(=O)O[C@H]2C)c1` [Compound 41, (S)-2-(3-(4-CHLORO-2-FLUOROPHENYL)UREIDO)-N-((6AS,8R,12S,13S,15AS,17R,21S,23AR)-8-HYDROXY-13,17,21-TRIMETHYL-6,11,15,20,23-PENTAOXOOCTADECAHYDRO-6H,11H,15H-DIPYRROLO[2,1-C:2′,1′-L][1,4]THIAZINO[3,4-I][1]OXA[4,7,10,13]TETRAAZACYCLOHEXADECIN-12-YL)-3-(M-TOLYL)PROPANAMIDE] ({NH(4-Cl-2-F-phenyl)-CO}-[Phe(3-Me)][aThr][Hyp][X1]A[Pro(4R-Me)]; ester 2-C), for which, in the data set “Plasma stability assay” (human, 10 μM), the “Human” value was more than 50 h. Further, in data set [1] (CD-1, mouse, pH 7.4), the “Mouse” value was 0.11 ± .113 h.
For the compound `Cc1cccc(C[C@H](NC(=O)Nc2ccc3c(c2)OCCO3)C(=O)N[C@@H]2C(=O)N3C[C@H](O)C[C@H]3C(=O)N3CCCC[C@H]3C(=O)N[C@@H](C)C(=O)N3C[C@H](C)C[C@H]3C(=O)O[C@H]2C)c1` [Compound 28, (S)-2-(3-(2,3-DIHYDROBENZO[B][1,4]DIOXIN-6-YL)UREIDO)-N-((2R,6S,8AS,14AS,16R,20S,21S,23AS)-16-HYDROXY-2,6,21-TRIMETHYL-5,8,14,19,23-PENTAOXOOCTADECAHYDRO-1H,5H,14H,19H-PYRIDO[2,1-I]DIPYRROLO[2,1-C:2′,1′-L][1]OXA[4,7,10,13]TETRAAZACYCLOHEXADECIN-20-YL)-3-(M-TOLYL)PROPANAMIDE] ({X3-CO}-[Phe(3-Me)][aThr][Hyp][Pip]A[Pro(4R-Me)]; ester 2-C), the “Human” value in the data set “Plasma stability assay” (human, 10 μM) is more than 50 h. Further, the “Mouse” value in data set [1] (CD-1, mouse, pH 7.4) was 0.79 ± .795 h.
In the same order, the values of `Cc1cccc(C[C@H](NC(=O)Nc2ccc(Cl)cc2F)C(=O)N[C@@H]2C(=O)N3C[C@H](OC(=O)CCN(C)C)C[C@H]3C(=O)N3CCCC[C@H]3C(=O)N[C@@H](C)C(=O)N3C[C@H](C)C[C@H]3C(=O)O[C@H]2C)c1` [Compound 46, (2R,6S,8AS,14AS,16R,20S,21S,23AS)-20-((S)-2-(3-(4-CHLORO-2-FLUOROPHENYL)UREIDO)-3-(M-TOLYL)PROPANAMIDO)-2,6,21-TRIMETHYL-5,8,14,19,23-PENTAOXOOCTADECAHYDRO-1H,5H,14H,19H-PYRIDO[2,1-I]DIPYRROLO[2,1-C:2′,1′-L][1]OXA[4,7,10,13]TETRAAZACYCLOHEXADECIN-16-YL 3-(DIMETHYLAMINO)PROPANOATE] ({NH(4-Cl-2-F-phenyl)-CO}-[Phe(3-Me)][aThr][Hyp](Propanoyl(3-NMe2))[Pip]A[Pro(4R-Me)]; ester 2-C) are 0.57 h and 0.22 ± 0.0 h.
In the same order, the values of `Cc1cccc(C[C@H](NC(=O)Nc2ccc3c(c2)OCCO3)C(=O)N[C@@H]2C(=O)N3C[C@H](O)C[C@H]3C(=O)N3CCOC[C@H]3C(=O)N[C@@H](C)C(=O)N3C[C@H](C)C[C@H]3C(=O)O[C@H]2C)c1` [Compound 27, (S)-2-(3-(2,3-DIHYDROBENZO[B][1,4]DIOXIN-6-YL)UREIDO)-N-((6AS,8R,12S,13S,15AS,17R,21S,23AS)-8-HYDROXY-13,17,21-TRIMETHYL-6,11,15,20,23-PENTAOXOOCTADECAHYDRO-6H,11H,15H-[1,4]OXAZINO[3,4-I]DIPYRROLO[2,1-C:2′,1′-L][1]OXA[4,7,10,13]TETRAAZACYCLOHEXADECIN-12-YL)-3-(M-TOLYL)PROPANAMIDE] ({X3-CO}-[Phe(3-Me)][aThr][Hyp][Morpholine(3S-CO)]A[Pro(4R-Me)]; ester 2-C) are more than 50 h and 0.79 ± .795 h.
In the same order, the values of `Cc1cccc(C[C@H](NC(=O)Nc2ccc(Cl)cc2F)C(=O)N[C@@H]2C(=O)N3CCC[C@H]3C(=O)N3CC(=O)NC[C@H]3C(=O)N[C@@H](C)C(=O)N3C[C@H](C)C[C@H]3C(=O)O[C@H]2C)c1` [Compound 20, (S)-2-(3-(4-CHLORO-2-FLUOROPHENYL)UREIDO)-3-(M-TOLYL)-N-((6AS,12S,13S,15AS,17R,21S,23AS)-13,17,21-TRIMETHYL-3,6,11,15,20,23-HEXAOXOOCTADECAHYDRO-2H,6H,11H,15H-PYRAZINO[2,1-I]DIPYRROLO[2,1-C:2′,1′-L][1]OXA[4,7,10,13]TETRAAZACYCLOHEXADECIN-12-YL)PROPANAMIDE] ({NH(4-Cl-2-F-phenyl)-CO}-[Phe(3-Me)][aThr]P[X4]A[Pro(4R-Me)]; ester 2-C) are 14.0 h and 6.24 ± 0.7 h.
For `CCc1ccc(NC(=O)N[C@@H](Cc2cccc(C)c2)C(=O)N[C@@H]2C(=O)N3C[C@H](O)C[C@H]3C(=O)N3CCCC[C@H]3C(=O)N[C@@H](C)C(=O)N3C[C@H](C)C[C@H]3C(=O)O[C@H]2C)cc1` [Compound 25, (S)-2-(3-(4-ETHYLPHENYL)UREIDO)-N-((2R,6S,8AS,14AS,16R,20S,21S,23AS)-16-HYDROXY-2,6,21-TRIMETHYL-5,8,14,19,23-PENTAOXOOCTADECAHYDRO-1H,5H,14H,19H-PYRIDO[2,1-I]DIPYRROLO[2,1-C:2′,1′-L][1]OXA[4,7,10,13]TETRAAZACYCLOHEXADECIN-20-YL)-3-(M-TOLYL)PROPANAMIDE] ({NH(4-Et-phenyl)-CO}-[Phe(3-Me)][aThr][Hyp][Pip]A[Pro(4R-Me)]; ester 2-C), the “Human” value in the data set “Plasma stability assay” (human, 10 μM) was more than 50 h. In data set [1] (CD-1, mouse, pH 7.4), the “Mouse” value stood at 2.35 ± 0.27 h.
In the same order, the values of `C[C@@H]1C[C@H]2C(=O)O[C@@H](C)[C@H](NC(=O)[C@H](Cc3cccc(Cl)c3)NC(=O)Nc3ccc(Cl)cc3F)C(=O)N3CCC[C@H]3C(=O)N3CCN(C)C[C@H]3C(=O)N[C@@H](C)C(=O)N2C1` [Compound 33] ({NH(4-Cl-2-F-phenyl)-CO}-[Phe(3-Cl)][aThr]P[Piperazine(2S-CO,4-Me)]A[Pro(4R-Me)]; ester 2-C) are more than 50 h and 0.80 ± .805 h.
On to `Cc1ccc(NC(=O)N[C@@H](Cc2cccc(C)c2)C(=O)N[C@@H]2C(=O)N3C[C@H](O)C[C@H]3C(=O)N3CCSC[C@H]3C(=O)N[C@@H](C)C(=O)N3C[C@H](C)C[C@H]3C(=O)O[C@H]2C)cc1` [Compound 42, (S)—N-((6AS,8R,12S,13S,15AS,17R,21S,23AR)-8-HYDROXY-13,17,21-TRIMETHYL-6,11,15,20,23-PENTAOXOOCTADECAHYDRO-6H,11H,15H-DIPYRROLO[2,1-C:2′,1′-L][1,4]THIAZINO[3,4-I][1]OXA[4,7,10,13]TETRAAZACYCLOHEXADECIN-12-YL)-3-(M-TOLYL)-2-(3-(P-TOLYL)UREIDO)PROPANAMIDE] ({NH(4-Me-phenyl)-CO}-[Phe(3-Me)][aThr][Hyp][X1]A[Pro(4R-Me)]; ester 2-C), for which, in the data set “Plasma stability assay” (setting [2]), the “Human” value was more than 50 h. Moreover, the “Mouse” value in data set [1] (setting [3]) is 0.78 ± .783 h.
